From paper PMC4492750, “The discovery of a selective and potent A2a agonist with extended lung retention” (Pharmacology Research & Perspectives, 2015)
Where “and” joins values, the source holds several entries; their conditions need not be identical. Equal entries are not always repeated. Where two headings read alike, the source gives them in different places.

What was measured:
[1] = system: blood pressure and heart rate; settings: rat, in vivo
From the text: A mixed effect model with fixed effects for time after dose, treatment groups, and number of doses, was set up for the analysis of the blood pressure and HR data (SAS v.9.2). A random intercept was included to allow for individual baseline blood pressures, as well as a random effect on the number of doses. Seven days before initiation of the dosing regimen, 24 rats were anaesthetized (isoflurane) and a small telemetry unit (PA-C10, Data Sciences International, USA) was placed subcutaneously on the left side of the throat with the catheter going into the left carotid artery. […] The compound was given by intratracheal instillation as described above, for 5 consecutive days, and blood pressure and heart rate were continuously recorded, apart from the brief period during compound administration.

[2] = system: mean arterial blood pressure and heart rate; experiment: Swivel study: four-step i.v. infusion in conscious rats, PK-PD of MAP and HR; format: in vivo, rat; parameters: Emax,MAP (maximum compound 2-induced decrease in MAP) / Emax,HR (maximum compound 2-induced increase in HR): unit not given here; settings: for EC50: rat plasma concentration
Description: The relationship between plasma concentrations of compound 2 and mean arterial pressure (MAP) and HR, respectively, were modeled using data generated in the swivel study, including data from start of first infusion up to 2 h after end of last infusion (Dose 1–4, equivalent to 1.9, 11, 67 and 410 μg/kg per min for 15 min at each step). The baseline value, calculated as average of measurements during the 60 min baseline recording period was used as the predose value. Temporal differences between effect measurements and blood sampling for plasma analysis were accounted for by fitting a standard two-compartment PK model to the time-concentration profile for each individual animal, and subsequently using the individual parameter estimates to simulate compound 2 plasma concentrations at the times of effect measurements. Phoenix® WinNonlin® Version 6.2.1 (Certara, L.P., Princetown, NJ) was used for modelling.
A 4-step intravenous infusion protocol was performed during continuous recording of the arterial blood pressure signal and intermittent blood sampling in seven conscious rats the day after surgical implantation of an arterial line in the abdominal aorta via the caudal artery and a venous line in the jugular vein. After a baseline recording of 60 minutes, compound 2 was given in 15-minute constant infusion steps of 1.9, 11, 67 and 410μg/kg/min (0.034-0.2ml/kg/min) followed by a washout period of 120 minutes. One rat was monitored under the same conditions as a time-matched control. Blood samples for analysis of drug exposure were taken at the end of each dose step and intermittently during the washout.

A2a = A2a (Homo sapiens, UniProt P29274); experiment: Human A2a receptor pharmacology: cAMP Alphascreen in CHO-K1 cells; format: cell-based; parameters: expressed in transfected cells; host or cells: CHO-K1
Description: (§1) • Human A2a and A2b receptor pharmacology: Chinese hamster ovary CHO-K1 cells stably expressing human A2a and A2b receptors were used to determine substances agonistic potency and intrinsic activity. […] The signal corresponding to adenosine at 100 μmol/L was used to define 100% intrinsic activity. • Human A3 receptor pharmacology: A3 receptor Gi coupling was measured by GTPγ ^35[S] filter assay at serial dilutions of compound using membranes from Perkin-Elmer. The signal corresponding to the maximal response of NECA at 100 μmol/L was set to 100% intrinsic activity. • Lipopolysaccharide (LPS)-induced TNFα production in primary human peripheral blood mononuclear cells (hTNFα PBMC) and rat mononuclears (rTNFα splenocytes): Human PBMC and rat mononuclear spleen cells were incubated with serial dilutions of compound and stimulated with LPS.
Chinese hamster ovary CHO-K1 cells stably expressing human A2a and A2b receptors were stored as 1ml aliquots at -150 °C in freezing medium, thawed immediately prior to assay. […] Cells (10000 cells/well) were incubated with test compounds prepared as serial dilutions. Potency (EC50) and efficacy (% of maximal response) were calculated from data fitted to a 4-parameter logistic function. The signal of 10µM NECA represented the maximal cAMP response (i.e. 100% of efficacy) produced by these cells.

[3] = Substance solubility in phosphate buffer; format: physicochemical; settings: aqueous buffer, thermodynamic from solid; phosphate buffer pH 7.4, dry compound in solid state
Description: as §1
Solubility was measured in phosphate buffer at pH 7.4 using dry compounds in solid state.

adenosine A1 receptor = target: T1, adenosine A1 receptor (Homo sapiens, UniProt P30542); experiment: Human A1 receptor pharmacology: GTPγ35[S] assay on membranes; format: biochemical; settings: average (SD)
T1 construct: purchased Perkin Elmer ES-010-M400UA
T1 sequence (P30542 1-326): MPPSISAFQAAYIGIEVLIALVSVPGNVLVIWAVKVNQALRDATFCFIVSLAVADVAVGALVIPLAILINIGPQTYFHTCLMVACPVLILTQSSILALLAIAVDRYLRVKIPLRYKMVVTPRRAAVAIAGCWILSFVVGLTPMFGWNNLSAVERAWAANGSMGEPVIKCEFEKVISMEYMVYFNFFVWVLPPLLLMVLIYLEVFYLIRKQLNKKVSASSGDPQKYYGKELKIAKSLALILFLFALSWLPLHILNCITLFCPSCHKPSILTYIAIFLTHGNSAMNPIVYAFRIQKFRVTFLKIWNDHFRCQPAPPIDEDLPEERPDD
Description: as §1
The A1 receptor Gi coupling was measured by a scintillation proximity (SPA) GTPγ ^35[S] assay. Membranes (12.5μg/ml final concentration) were incubated with substances in serial dilutions (50mM Hepes, pH 7.4, 1mM MgCl2, 100mM NaCl, 0.01% BSA, 50μg/ml saponin and 2.5μM GDP) including 1mg/ml Scintillation Beads (Wheat Germ Agglutinin PVT SPA, Perkin Elmer - Rpnq0001), 0.3nM of GTPγ ^35[S] (Perkin Elmer - NEG030H) and counts were read after 16h incubation at 4 °C. The signal corresponding to adenosine at 100μM was used to define 100% efficacy.

[4] = calculated from PK-PD relationships
[5] = conscious rats, 2 h after end of four-step i.v. infusion

Sequence of A2a (P29274 whole entry): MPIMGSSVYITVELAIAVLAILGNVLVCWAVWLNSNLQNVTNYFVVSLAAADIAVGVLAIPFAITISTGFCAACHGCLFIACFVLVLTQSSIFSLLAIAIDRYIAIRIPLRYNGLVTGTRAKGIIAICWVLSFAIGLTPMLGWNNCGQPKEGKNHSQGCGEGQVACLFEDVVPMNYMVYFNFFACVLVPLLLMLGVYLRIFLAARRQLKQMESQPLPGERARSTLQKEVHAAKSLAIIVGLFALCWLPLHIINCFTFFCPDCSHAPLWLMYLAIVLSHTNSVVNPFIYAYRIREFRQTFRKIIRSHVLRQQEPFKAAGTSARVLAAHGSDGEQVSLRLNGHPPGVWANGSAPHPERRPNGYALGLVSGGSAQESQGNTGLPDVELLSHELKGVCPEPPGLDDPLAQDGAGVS

Emax (A2a; CHO-K1, 100% = 10 μmol/L NECA, average (SD), read-out: A2a human CHO-K1 cells Intrinsic activity): 97.9%
EC50 (A2a; cAMP generation, average (SD)): 1.4 nM
Selectivity for A2a over A1, A2b and A3 (A2a; human adenosine receptors): > 1000 fold
solubility [3]: > 1000 µM
EC50 (adenosine A1 receptor): 2100 nM
SMILES: CCNC(=O)[C@H]1O[C@@H](n2cnc3c(NC(CC)CC)nc(NCCNC(=O)Nc4cc[n+](C)cc4)nc32)[C@H](O)[C@@H]1O [Compound 2, (2S,3S,4R,5R)-N-ethyl-5-[6-(1-ethylpropylamino)-2-[2-[(1-methylpyridin-1-ium-4-yl)carbamoylamino]ethylamino]purin-9-yl]-3,4-dihydroxy-tetrahydrofuran-2-carboxamide]
Tachyphylaxis for the HR [1]: did not demonstrate any tachyphylaxis
Concentration for 10% MAP decrease relative to plasma concentration at effective dose (fold lower) ([2]; 0.3 nmol/L vs 2-4 nmol/L at 10 μg/kg i.t.): 10 fold
kE0 (first-order rate constant, effect compartment) ([2]; PK-PD model of MAP, mean ± SD): 0.058 ± 0.039 min⁻¹
EC50 ([2]; Rattus norvegicus, iv, sigmoid Emax model, mean ± SD, read-out: EC50,MAP (plasma concentration that induces half the maximum MAP decrease)): 0.5 nM
EC50 ([2]; Rattus norvegicus, iv, simple Emax model on mean data, read-out: EC50,HR): 0.18 nM
Plasma concentration that produces 10% increase from baseline HR [2, 4]: 0.04 nM
Total plasma concentration that causes 10% decrease from baseline MAP [2, 4]: 0.3 ± 0.2 nmol/L and 0.3 nmol/L
Blood pressure 2 h postdosing [2, 5]: 100 ± 7 mmHg
Heart rate 2 h postdosing [2, 5]: 489 ± 41 bpm
Heart rate at dose 2 ([2]; conscious rats, i.v. infusion 11 μg/kg per min for 15 min, baseline 381 ± 21): 472 ± 33 bpm
Blood pressure at dose 3 ([2]; conscious rats, i.v. infusion 67 μg/kg per min for 15 min, baseline 114 ± 9): 98 ± 9 mmHg
Core body temperature ([2]; highest dose (410 μg/kg per min i.v.)): significant reduction
EC50 ([2]; sigmoid Emax model, mean ± SD, read-out: EC50,MAP (plasma concentration that induces half the maximum MAP decrease)): 0.52 ± 0.16 nM
Emax,MAP (maximum compound 2-induced decrease in MAP) ([2]; sigmoid Emax model, mean ± SD): 37 ± 11
Emax,HR (maximum compound 2-induced increase in HR) ([2]; simple Emax model on mean data): 158
